# Results reported in ChEMBL document CHEMBL1201862, “PubChem BioAssay data set” (2004).
# Activity calls are given as the source filed them.
# Columns and labels:
# Cytochrome P450 2C9 = Cytochrome P450 2C9 (Homo sapiens, UniProt P11712)
# [1] = reduction of Shn3 3'UTR-driven luciferase in osteoblasts – cell-based, Clone20 osteoblasts, firefly luciferase, cherry-picked, dose response (AID 624132); type: functional;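 note: firefly luciferase luminescence from reporter carrying the Shn3 3'UTR in osteoblasts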
# [2] = tested on: Streptococcus sp. 'group A'; assay: Streptococcus pyogenes SK(-)GAS viability under kanamycin – luminescence, BacTiterGlo, confirmation, counter-screen for streptokinase expression inhibitor project, dose response (AID 1900); type: functional, organism-based
# Streptokinase A = target: T1, Streptokinase A (Streptococcus pyogenes serotype M1, UniProt P10520); assay: viability-normalized secreted streptokinase activity reduction – plasminogen activation absorbance, OD405, dose response (AID 1914); type: functional, Streptococcus pyogenes M1 GAS;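 note: secreted streptokinase activity via plasminogen activation per viability signal from cell pellet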
# T1 sequence (P10520 whole entry): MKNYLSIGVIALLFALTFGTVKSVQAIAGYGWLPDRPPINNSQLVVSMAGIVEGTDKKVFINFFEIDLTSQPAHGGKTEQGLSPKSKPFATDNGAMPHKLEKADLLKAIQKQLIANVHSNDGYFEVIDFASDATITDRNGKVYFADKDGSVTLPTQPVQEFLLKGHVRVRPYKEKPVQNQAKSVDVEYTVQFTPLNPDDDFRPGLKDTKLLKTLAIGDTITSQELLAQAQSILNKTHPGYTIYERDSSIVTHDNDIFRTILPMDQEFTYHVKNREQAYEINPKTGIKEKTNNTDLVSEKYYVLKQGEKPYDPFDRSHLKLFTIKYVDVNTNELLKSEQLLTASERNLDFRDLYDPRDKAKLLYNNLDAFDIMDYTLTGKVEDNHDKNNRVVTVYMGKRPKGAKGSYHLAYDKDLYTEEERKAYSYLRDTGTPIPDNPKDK
# [3] = loss of viability in HepG2 cells – cell-based, CellTiter-Glo, cherry-picked, cytotoxicity control for Shn3 inhibitor project, dose response (AID 624134); type: functional
# Streptococcus = assay: GAS UMAA2166 growth inhibition – luminescence, BacTiterGlo, counter-screen for streptokinase expression inhibitor project, dose response (AID 1915); type: functional, organism-based;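 note: potency for reduction of bacterial viability or growth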
# [4] = non-specific 3'UTR reporter inhibition in Clone20-Shn3RL – cell-based, Renilla luciferase, cherry-picked, counter-screen for Shn3 inhibitor project, dose response (AID 624133); type: functional
# Cytochrome P450 2D6 = Cytochrome P450 2D6 (Homo sapiens, UniProt P10635);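 note: CYP2D6 member of a cytochrome P450 panel assay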
# Sequence of Cytochrome P450 2D6 (P10635 whole entry): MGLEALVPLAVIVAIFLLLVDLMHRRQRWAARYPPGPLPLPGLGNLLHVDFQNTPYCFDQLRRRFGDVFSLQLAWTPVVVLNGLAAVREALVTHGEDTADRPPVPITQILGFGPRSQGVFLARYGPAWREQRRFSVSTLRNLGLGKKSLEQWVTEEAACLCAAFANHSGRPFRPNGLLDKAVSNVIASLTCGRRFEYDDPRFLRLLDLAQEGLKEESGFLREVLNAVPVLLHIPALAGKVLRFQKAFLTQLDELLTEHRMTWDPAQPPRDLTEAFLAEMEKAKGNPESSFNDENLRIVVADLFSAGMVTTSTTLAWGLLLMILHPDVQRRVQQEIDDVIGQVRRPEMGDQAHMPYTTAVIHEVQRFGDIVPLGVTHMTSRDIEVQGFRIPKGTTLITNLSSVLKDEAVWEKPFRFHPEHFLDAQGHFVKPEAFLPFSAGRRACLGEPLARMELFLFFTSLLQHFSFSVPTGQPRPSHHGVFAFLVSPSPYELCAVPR
# P388 = assay: cells; type: functional; conditions: Mus musculus
# P388/ADR = assay: cells; type: functional; conditions: Mus musculus
# SN12K1 = assay: cells; type: functional; conditions: Homo sapiens
# Cytochrome P450 1A2 = target: T2, Cytochrome P450 1A2 (Homo sapiens, UniProt P05177);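 note: PubChem cytochrome P450 panel assay, CYP1A2 panel member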
# T2 sequence (P05177 whole entry): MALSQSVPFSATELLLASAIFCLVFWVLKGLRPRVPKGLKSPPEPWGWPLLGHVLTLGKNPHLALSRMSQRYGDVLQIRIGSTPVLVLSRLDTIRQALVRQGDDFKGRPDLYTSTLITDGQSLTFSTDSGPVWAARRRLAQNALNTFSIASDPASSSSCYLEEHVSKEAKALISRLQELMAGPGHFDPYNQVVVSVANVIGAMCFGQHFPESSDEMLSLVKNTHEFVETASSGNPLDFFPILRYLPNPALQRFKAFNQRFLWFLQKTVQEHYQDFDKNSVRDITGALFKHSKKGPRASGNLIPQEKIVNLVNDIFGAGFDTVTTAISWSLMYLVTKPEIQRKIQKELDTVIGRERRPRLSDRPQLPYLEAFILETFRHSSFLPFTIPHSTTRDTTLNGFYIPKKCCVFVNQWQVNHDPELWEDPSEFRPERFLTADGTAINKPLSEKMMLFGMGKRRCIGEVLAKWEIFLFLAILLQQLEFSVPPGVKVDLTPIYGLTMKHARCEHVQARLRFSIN
# Cytochrome P450 3A4 = Cytochrome P450 3A4 (Homo sapiens, UniProt P08684);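 note: CYP3A4 tested as one member of a cytochrome P450 panel screen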
# Sequence of Cytochrome P450 3A4 (P08684 whole entry): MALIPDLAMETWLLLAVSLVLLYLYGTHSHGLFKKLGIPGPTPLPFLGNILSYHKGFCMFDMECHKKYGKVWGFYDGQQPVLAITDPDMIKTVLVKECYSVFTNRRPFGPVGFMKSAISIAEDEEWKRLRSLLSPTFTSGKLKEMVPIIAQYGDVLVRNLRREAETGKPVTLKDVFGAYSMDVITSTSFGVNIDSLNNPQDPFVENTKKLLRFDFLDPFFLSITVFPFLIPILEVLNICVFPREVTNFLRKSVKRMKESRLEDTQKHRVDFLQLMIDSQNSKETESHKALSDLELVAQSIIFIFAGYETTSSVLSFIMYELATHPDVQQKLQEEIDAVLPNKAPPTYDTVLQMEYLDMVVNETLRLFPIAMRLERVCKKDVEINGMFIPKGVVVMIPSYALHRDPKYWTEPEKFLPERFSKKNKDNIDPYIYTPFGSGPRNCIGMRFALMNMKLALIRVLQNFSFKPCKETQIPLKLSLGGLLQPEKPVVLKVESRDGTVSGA
# Cytochrome P450 2C19 = Cytochrome P450 2C19 (Homo sapiens, UniProt P33261); assay: Cytochrome panel assay with activity outcomes. Panel member name: p450-cyp2c19 Compounds with AC50 equal or less than 10 uM are considered active; type: functional
# Sequence of Cytochrome P450 2C19 (P33261 whole entry): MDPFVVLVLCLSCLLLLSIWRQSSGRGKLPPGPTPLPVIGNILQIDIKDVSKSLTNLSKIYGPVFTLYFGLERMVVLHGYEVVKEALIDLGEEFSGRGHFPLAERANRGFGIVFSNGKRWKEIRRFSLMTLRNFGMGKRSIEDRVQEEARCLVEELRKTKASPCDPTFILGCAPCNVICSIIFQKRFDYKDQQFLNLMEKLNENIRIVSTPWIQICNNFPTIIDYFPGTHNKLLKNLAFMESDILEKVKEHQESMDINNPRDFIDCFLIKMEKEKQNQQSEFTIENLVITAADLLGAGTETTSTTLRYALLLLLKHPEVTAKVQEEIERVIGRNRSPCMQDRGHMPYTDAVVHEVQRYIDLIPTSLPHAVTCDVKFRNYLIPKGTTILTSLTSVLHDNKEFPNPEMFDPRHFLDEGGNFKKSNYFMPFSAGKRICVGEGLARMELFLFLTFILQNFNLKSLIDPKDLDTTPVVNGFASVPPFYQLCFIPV
# H9c2 = assay: cells; type: functional, cell-based; conditions: Rattus norvegicus, H9c2, Myocardium;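 note: confirmatory concentration-response retest of ultra-high-throughput screening hits for modulation of myocardial damage; cell death induced by hydrogen peroxide oxidative stress; compound pretreatment for 60 min then peroxide exposure for 2 h; potency is for protecting the cells against peroxide damage rather than for killing them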
# [5] = viability of PTEN-deleted HCT116 cells – cell-based, HCT116 PTEN knockout, dose response (AID 1047); type: functional;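 note: HCT116 colon tumor cells with PTEN knocked out; cells exposed to compound for 60 hours before readout; potency for loss of cell viability measured by luminescence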
# [6] = viability of HCT116 lacking mutant beta-catenin – cell-based, human colon tumor, dose response (AID 1045); type: functional;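 note: HCT116 colon tumor cells with beta catenin knocked out; cells exposed to compound for 60 hours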
# [7] = Trypanosoma cruzi growth suppression in host cells – NIH3T3 host cells, beta-gal luminescence, confirmation (AID 2044); type: functional, cell-based;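 note: intracellular parasites grown in NIH/3T3 mouse fibroblasts as host cells; luminescent beta-galactosidase reporter signal from transgenic T. cruzi replicating inside host cells; inhibitors lower the luminescence signal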
# [8] = NIH3T3 cell viability loss – ATP luminescence, mouse fibroblasts, counter-screen, dose response (AID 2010); type: functional, cell-based;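 note: cells exposed to compound for about 90 hours before reading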
# Sequence of Cytochrome P450 2C9 (P11712 whole entry): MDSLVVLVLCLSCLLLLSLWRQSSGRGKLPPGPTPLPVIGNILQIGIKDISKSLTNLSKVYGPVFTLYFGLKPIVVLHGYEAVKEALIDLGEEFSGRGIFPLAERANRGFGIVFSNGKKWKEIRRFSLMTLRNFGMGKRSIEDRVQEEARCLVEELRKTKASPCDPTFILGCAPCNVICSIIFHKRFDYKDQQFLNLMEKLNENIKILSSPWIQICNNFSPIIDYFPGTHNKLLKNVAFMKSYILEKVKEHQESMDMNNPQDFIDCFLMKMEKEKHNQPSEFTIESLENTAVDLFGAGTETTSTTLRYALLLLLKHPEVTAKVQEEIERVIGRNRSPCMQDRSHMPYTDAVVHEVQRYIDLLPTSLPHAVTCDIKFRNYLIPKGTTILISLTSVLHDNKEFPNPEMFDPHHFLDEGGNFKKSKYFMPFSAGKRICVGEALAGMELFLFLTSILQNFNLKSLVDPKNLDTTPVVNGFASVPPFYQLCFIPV
compound,measurement,setting,value
CCC[C@H]1C[C@H](C(=O)N[C@H]([C@@H]2O[C@H](SC)[C@@H](O)[C@H](O)[C@@H]2O)[C@H](C)O)N(C)C1,AC50,Cytochrome P450 2C9,inconclusive
Cc1ccc(C(C)C)cc1NC(=O)Nc1ccc([N+](=O)[O-])cc1,AC50,[1],7.19 µM (active)
same,EC50,[2],6.64 µM (active)
same,EC50,Streptokinase A,10.8 µM (active)
same,AC50,[3],22.4 µM (active)
same,EC50,Streptococcus,17.5 µM (active)
same,AC50,[4],6.53 µM (active)
CC(=O)N1c2c(cc(Br)cc2S(=O)(=O)NCC2COc3ccccc3O2)CC1C (stereo not given),AC50,Cytochrome P450 2D6,17.8 µM (inconclusive)
same,AC50,Cytochrome P450 2C9,inconclusive
CNC(=O)OCc1nc(SSC(C)(C)C)n(C)c1COC(=O)NC,GI50,P388,1.12 µM (inactive)
same,GI50,P388/ADR,2.47 µM (inactive)
same,GI50,SN12K1,5.13 µM (inactive)
N/C(=N\O)N/N=C\c1cc([N+](=O)[O-])cc([N+](=O)[O-])c1O,GI50,P388,2.3 µM (inactive)
same,GI50,P388/ADR,7.59 µM (inactive)
same,GI50,SN12K1,0.743 µM (active)
COc1ccn(C)c(=O)c1C#N [RICININE],AC50,Cytochrome P450 2C9,inconclusive
COc1cc(C2c3cc4c(cc3[C@@H](Nc3ccc(N5CCOCC5)cc3)C3COC(=O)[C@H]23)OCO4)cc(OC)c1O (stereo not given in full),GI50,P388,< 0.01 µM (active)
same,GI50,P388/ADR,0.0735 µM (active)
same,GI50,SN12K1,1 µM (active)
CCCN(CCC)C[C@@H]1CCCCN1CCNC(=O)N1c2ccccc2C(=O)Nc2cccnc21,AC50,Cytochrome P450 1A2,25.1 µM (inconclusive)
same,AC50,Cytochrome P450 2C9,inconclusive
same,AC50,Cytochrome P450 3A4,15.8 µM (inconclusive)
ClCc1nnc2n1-c1ccc(Cl)cc1SC2,GI50,P388,0.927 µM (active)
same,GI50,P388/ADR,1.66 µM (inactive)
same,GI50,SN12K1,2.83 µM (inactive)
COc1ccc(/C=C(/C#N)C(=O)NC2CCCCC2)cc1Br,AC50,Cytochrome P450 2C9,inconclusive
same,AC50,Cytochrome P450 3A4,25.1 µM (inconclusive)
CC(=O)NCCCCCCNC(C)=O [HEXAMETHYLENEBISACETAMIDE],GI50,P388,4260 µM (inactive)
same,GI50,P388/ADR,3520 µM (inactive)
same,GI50,SN12K1,9930 µM (inactive)
CCOC(=O)c1ccc(N[C@@H]2c3cc4c(cc3C(c3cc(OC)c(O)c(OC)c3)[C@H]3C(=O)OCC32)OCO4)cc1 (stereo not given in full),GI50,P388,< 0.01 µM (active)
same,GI50,P388/ADR,0.0256 µM (active)
same,GI50,SN12K1,< 0.01 µM (active)
O=C1c2cccc([N+](=O)[O-])c2C(=O)N1c1ncn[nH]1,AC50,Cytochrome P450 1A2,3.16 µM (inconclusive)
same,AC50,Cytochrome P450 2C19,inconclusive
same,AC50,Cytochrome P450 2C9,inconclusive
same,AC50,Cytochrome P450 3A4,3.98 µM (inconclusive)
CCOC(=O)C(N)CSC(=O)NC (stereo not given),GI50,P388,30.1 µM (inactive)
same,GI50,P388/ADR,12.3 µM (inactive)
same,GI50,SN12K1,44.1 µM (inactive)
CNc1nc(-c2ccccc2Cl)nc2ccccc12,AC50,Cytochrome P450 2D6,39.8 µM (inconclusive)
same,AC50,Cytochrome P450 2C9,inconclusive
Cc1cc2nnc(SCCCCN3C(=O)c4ccccc4C3=O)n2c2ccccc12,AC50,Cytochrome P450 2C9,inconclusive
O=NN(CCCl)C(=O)N[C@H]1CC[C@@H](C(=O)O)CC1,GI50,P388,5.14 µM (inactive)
same,GI50,P388/ADR,5.26 µM (inactive)
same,GI50,SN12K1,98.6 µM (inactive)
COc1cc(-c2nnc(-c3ccc(N4CCOCC4)cc3)o2)cc(OC)c1OC,AC50,Cytochrome P450 2C9,inconclusive
same,IC50,H9c2,> 79 µM (inactive)
same,AC50,Cytochrome P450 3A4,7.94 µM (inconclusive)
COc1cc(C2c3cc4c(cc3[C@@H](Nc3cccc(C(C)=O)c3)C3COC(=O)[C@H]23)OCO4)cc(OC)c1O (stereo not given in full),GI50,P388,< 0.01 µM (active)
same,GI50,P388/ADR,0.124 µM (active)
same,GI50,SN12K1,< 0.0361 µM (active)
CO[C@H]1C[C@](C)(O)Cc2cc3c(c(O)c21)C(=O)c1c(O)cc2c(c1C3=O)O[C@@H]1O[C@@]2(C)[C@H](O)[C@@H](N(C)C)[C@@H]1O,GI50,P388,0.054 µM (active)
same,GI50,P388/ADR,1.21 µM (inactive)
same,GI50,SN12K1,0.0736 µM (active)
O=c1cnn(C2OC(CO)C(O)C2O)c(=S)[nH]1 (stereo not given),GI50,P388,1.92 µM (inactive)
same,GI50,P388/ADR,0.933 µM (active)
same,GI50,SN12K1,3.06 µM (inactive)
CSc1nc2c(ncn2C2OCC(O)C(O)C2O)c(=O)n1C (stereo not given),GI50,P388,> 100 µM (inactive)
same,GI50,P388/ADR,> 100 µM (inactive)
same,GI50,SN12K1,> 100 µM (inactive)
O=C(NC1CCCC1)C1CC(c2ccc(F)cc2)=NO1 (stereo not given),AC50,Cytochrome P450 2C9,inconclusive
same,AC50,Cytochrome P450 3A4,25.1 µM (inconclusive)
O=C(Nc1ccccc1N1CCOCC1)c1ccccc1[N+](=O)[O-],AC50,Cytochrome P450 1A2,12.6 µM (inconclusive)
same,AC50,Cytochrome P450 2C9,inconclusive
C/C([O-])=C(/c1nc(-c2ccc([N+](=O)[O-])o2)no1)[n+]1cc(C)ccc1C,GI50,P388,54.8 µM (inactive)
same,GI50,P388/ADR,> 100 µM (inactive)
same,GI50,SN12K1,13.4 µM (inactive)
O=C(O)Cc1nn(Cc2ccc(Br)cc2F)c(=O)c2ccccc12 [PONALRESTAT],AC50,Cytochrome P450 1A2,31.6 µM (inconclusive)
same,AC50,Cytochrome P450 2C9,inconclusive
CCOC(=O)C1=C(c2ccccc2)N=c2s/c(=C\c3ccc(O)cc3)c(=O)n2C1c1cccs1 (stereo not given),EC50,[5],19.7 µM (active)
same,EC50,[6],17.9 µM (active)
same,AC50,Cytochrome P450 2C19; read-out: AC50,3.98 µM (inconclusive)
same,AC50,Cytochrome P450 2C9,inconclusive
CN(C)c1ncc2nc(-c3cc(F)cc(F)c3)c(=O)n(CCC#N)c2n1,AC50,Cytochrome P450 2C9,inconclusive
same,AC50,Cytochrome P450 3A4,39.8 µM (inconclusive)
CCC(=O)NC(c1ccc(OC)c(OC)c1)c1cc(Cl)c2cccnc2c1O (stereo not given),EC50,[7],0.96 µM (active)
same,AC50,[1],< 0.26 µM (active)
same,EC50,[2],4.86 µM (active)
same,EC50,Streptokinase A,> 150 µM (not active)
same,EC50,[8],4.73 µM (active)
same,AC50,[3],5.6 µM (active)
same,EC50,Streptococcus,> 150 µM (not active)
same,AC50,[4],2.11 µM (active)
CN(C(=O)c1ccc(OCCCC(=O)O)c(Cl)c1Cl)C1CCCC1,GI50,P388,> 100 µM (inactive)
same,GI50,P388/ADR,> 100 µM (inactive)
same,GI50,SN12K1,> 89.5 µM (inactive)
COc1ccc(Oc2ncc3nc(-c4cn(C)c5ccccc45)c(=O)n(CCC#N)c3n2)cc1,AC50,Cytochrome P450 1A2,2 µM (inconclusive)
same,AC50,Cytochrome P450 2C9,inconclusive
C=C/C(C)=C/[C@H](C)C(=O)C[C@H](O)CC1CC(=O)NC(=O)C1,GI50,P388,9.86 µM (inactive)
same,GI50,P388/ADR,27.2 µM (inactive)
same,GI50,SN12K1,35.5 µM (inactive)
C#CC[C@@]12CC(=O)C[C@@H]1CCC1(C2)OCCO1.C#CC[C@]12CC(=O)CC[C@H]1CC(=O)C2,GI50,P388,23.7 µM (inactive)
same,GI50,P388/ADR,36.6 µM (inactive)
same,GI50,SN12K1,> 100 µM (inactive)
